The text below walks through data of PMC8302598, “Rapid discovery of self-assembling peptides with one-bead one-compound peptide library” (Nature Communications, 2021).

Entries after “also recorded” stand apart in the source; their conditions may differ.

Format in all cases: physicochemical
A short description of data set [1]: Fluorescent-activation screening assay on OBOC beads (NBD). The note with it: for Fluorescence (beads): peptide N-terminally capped with NBD on TentaGel S beads, in water, fluorescence microscope; for Bead fluorescence in methanol: NBD N-capped peptide on TentaGel S beads, 20 min. The source says:
It is well known that Aβ16–20 peptide sequence KLVFF can self-assemble into nanofibers in water. We, therefore, chose it as a model peptide to test our screening strategy and used KAAGG as the non-assembling negative control. These control peptides, N-terminally capped with NBD were synthesized with standard Fmoc-chemistry, and TentaGel S resin beads as solid support but without any cleavable linker. After side-chain deprotection, the beads were thoroughly washed with DMF, which was replaced stepwise with water or methanol and then examined under a fluorescent microscope. […] This is expected as the hydrophobicity-sensitive fluorescence dye NBD would fluoresce brightly under hydrophobic condition, in this case, methanol. In water, we expect fluorescent signal emitted from non-sequestered NBD to diminish, unless it is buried inside a hydrophobic environment such as within peptide aggregates or β-sheets formed by KLVFF peptides.
(§1) Once the screening method has been validated with our model KLVFF peptide, a totally random pentapeptide library with 19[5] permutations (cysteine was omitted from the library) was constructed using our previously published methods (Supplementary Fig. 3)[23]. Again, TentaGel S resin (loading of 0.31 mmol/g) was used as the solid support. The pentapeptides in the library were N-terminally capped with NBD. […] The positive bead with an intense fluorescent signal (pointed with a solid arrow) was noted. The rest of the beads were considered negative or weak positive beads. From a total of approximately 100 000 beads screened, we selected a total of eight strongest fluorescent positive beads and four dark beads as negative beads. The peptides were then resynthesized in soluble form and purified by high-performance liquid chromatography (HPLC) for testing (Supplementary Figs. 4–12). The amino acid sequences of the eight self-assembling pentapeptides are FTISD, ITSVV, YFTEF, ISDNL, LDFPI, FAGFT, FGFDP, and FFVDF. Not unexpectedly, of the 40 amino acids in these eight pentapeptides, 50% are hydrophobic residues, predominated by Phe (11 Phe, 4 Ile, 3 Val, and 2 Leu). For the remaining 20 amino acids, six are acidic residues (5 Asp and 1 Glu) and seven are neutral and hydrophilic (4 Thr and 3 Ser). The rest are 2 Pro, 2 Gly, 1 Tyr, 1 Asn, and 1 Ala. All eight peptides have at least two hydrophobic residues. Six out of the eight peptides have one negatively charged residue (Asp or Glu). The remaining two peptides are neutral. […] For the Pro containing pentapeptides, LDFPI and FGFDP, the Pro residue, which promotes peptide turns, resides at the fourth and fifth positions, but not in the middle. Not unexpectedly, all the four randomly selected negative non-assembling peptides (RITTR, PLVKA, PFTTR, and QIMRW) have very different sequences, and contain at least one positive charged amino acid.
The OBOC pentapeptide libraries (19[5]) were built using Fmoc strategy SPPS (solid-phase peptide synthesis) (Supplementary Fig. 3). TentaGel S Resin (named N-beads with loading 0.31 mmol/g) was used as the solid phase support. The pentapeptide sequence of X1 X2 X3 X4 X5 was constructed in the library, in which X1−X5 represents either Ala, Asp, Glu, Phe, Gly, His, Ile, Lys, Leu, Met, Asn, Pro, Gln, Arg, Ser, Thr, Val, Trp, and Tyr residues. During the synthesis of OBOC library, solid support beads were mixed and split equally in each cycle, then different amino acids were added, separately, the process was repeated four times. The synthesis of peptides was used anhydrous DMF as solvent. The Fmoc group was removed by 20% (v/v) piperidine in DMF and the deprotection time was 10 min twice. During the coupling step, the HBTU (4 mM) and Fmoc-amino acid (4 mM) were dissolved in DMF containing NMM (0.4 mM). The coupling time was 50 min. Qualitative Fmoc deprotection and coupling were confirmed by ninhydrin test. All the above experiments were carried out in the solid phase peptide synthesis vessels with sieves in it. […]

A short description of data set [2]: Self-assembly of resynthesized soluble pentapeptides. The note with it: self-assembly under aqueous environment.
From the text: as §1
To estimate the propensity of the identified peptides to self-assemble, the critical micelle concentrations (CMC) of the eight positive peptides and four negative peptides were determined, and the results are shown in Table 1 and Supplementary Figs. 13, 14. The CMC of all the eight positive peptides were detectable and found to range between 8.4 and 14.8 μM, indicating the propensity for these peptides to self-assemble under aqueous environment. […] Hydrophobicity of peptides can be predicted by the value of GRAVY[28] with more negative value for more hydrophilic peptides. Of the four negative assembling peptides, two have a negative GRAVY value. […] Experimental testing, such as the screening strategy described in this work, is needed. This is because multiple factors, including hydrophobicity, hydrogen-bonding, electrostatic interactions, and positions of each residue within the peptides, all contribute to the assembling and final morphology of the self-assembled nano-structure. […]

The nature of data set [3]: Turbidity test (transmittance spectra). The following applies: 20 μM peptide in water. As for the experimental part: To further confirm the peptide assembling in water, the solutions of pentapeptide were diluted to 20 μM for turbidity test.
The nature of data set [4]: Appearance and TEM of 30 mM peptide in water. As to the method:
To further characterize these self-assembling peptides, we selected two positive peptides (FFVDF and YFTEF) and a negative control peptide (PFTTR) for the following studies: Fourier transform infrared (FT-IR) spectroscopy, UV−Vis spectra, and transmission electron microscopy (TEM).
(§2) Pentapeptides monomers were dissolved in DMSO at a concentration of 5.0 mM, followed by quick injection into water at a volume ratio of 1:99 for DMSO and H2O to obtain the nanomaterials solution (50 μM). For 30 mM pentapeptide solution, the pentapeptide was dissolved in water and sonicated for 3 min.
(§3) The pentapeptide solution with the concentration of 20 μM (10 μL) was placed dropwise onto a copper mesh for 5 min, then most of the liquid was removed through a filter paper. Ten microliters of uranyl acetate solution were employed to stain the samples for 5 min, followed by drying the spare liquid with the filter. Finally, the copper mesh was washed with 10 μL of deionized water, which was blotted after staining and drying at room temperature. All of the samples were observed by TEM (Tecnai G2 20 S-TWIN) at an accelerating voltage of 200 kV.

Data set [5] is described as follows: TEM morphology and size of peptide nano-assemblies over time. The following applies: same peptide preparation in water with 1% DMSO.
From the text: Self-assembling peptides with good biocompatibility may be used to construct nanocarriers for drug delivery. We recently reported the use of FFVLK, the reverse sequence of KLVFF, as a self-aggregating β-sheet forming domain for the delivery of HER2 targeting peptides for successful treatment of breast cancer in xenograft models. Such FFVLK containing peptide is able to self-assemble into nanoparticles. Upon intravenous administration, the FFVLK-nanoparticle was able to transform into nanofibrillar network when encountering HER2 at the tumor sites. To investigate the morphology of the nano-assembly formed by the eight self-assembling peptides, we dissolved each of these peptides in DMSO (5 mM) and then diluted them 100X with water at a final peptide concentration of 50 μM to induce spontaneous self-assembly. Each sample was fixed immediately after peptide solution preparation and at 4 h time point for subsequent TEM processing and analysis. As clearly shown in Fig. 4a, all eight self-assembling peptides initially formed some nanostructures: nanoparticles for ITSVV, YFTEF, ISDNL, LDFPI, FAGFT, FGFDP, and FTISD; nanofibers for FFVDF. […] LDFPI (8 nm) maintained the particulate morphology without changing of diameter in 4 h. FFVDF formed nanofibers at 0 and 4 h. […] Time-dependent size variations of pentapeptides in water were further confirmed by DLS spectra (Supplementary Fig. 18). The initial diameters of nanoparticles formed by seven pentapeptides were larger than that observed by TEM, probably due to hydration radius. The size of the nanostructure increased over time, correlating well with the morphologic transformation. […] Circular dichroism (CD) was used to monitor the secondary structures of the nano-assembly of the eight self-assembling peptides over time (Supplementary Fig. 20).
as §2, §3

The nature of data set [6]: Fluorescent-activation screening assay on OBOC beads (NBD). The following applies: peptide beads incubated with free dye in water for 2 hours.

“(NBD)-LIVGD-beads [additional positive control LIVGD N-capped with NBD on beads, reference compound]”: the “Fluorescence (beads)” value in data set [1] is “fluorescence-on”.

Regarding “PFTTR [randomly selected negative non-assembling pentapeptide]”, the “Fluorescence (beads)” value in data set [1] was “Off”. Besides, the Assembly entry in data set [2] was “No”. Also, the “Transmittance at 400 nm” value in data set [3] came out at 100%. The “Nanostructure under TEM” value in data set [4] (30 mM in H2O) is “no nanostructures observed”. Also, the “Appearance of peptide in water” value in data set [4] (30 mM in water, sonicated 3 min) is “completely clear solution”. Further, the “Nanostructures detected by TEM (negative controls)” value (“Nanostructures detected by TEM” below) in data set [5] is “no nanostructures were detected”.

For the substance “RITWI [randomly selected negative non-assembling pentapeptide]”, the “Fluorescence (beads)” value in data set [1] was “Off”. The Assembly entry in data set [2] is recorded as “No”. For the same substance, the “Nanostructures detected by TEM” value in data set [5] is given as “no nanostructures were detected”.

With “KAAGG-beads [negative control peptide KAAGG on beads, probed with free reporter dye]”, in data set [6], the “Bead fluorescence with free dye (ThT, Nile Red or NBD)” value is “fluorescent off”.

For the substance “(NBD)-KAAGG-beads [non-assembling negative control KAAGG N-terminally capped with NBD on TentaGel S resin beads, reference compound]”, in data set [1], the “Bead fluorescence in methanol” value is on record as “bright fluorescence” and the “Fluorescence (beads)” value was “did not”.

As to “(NBD)-KLVFF-beads [positive control: Aβ16–20 peptide KLVFF N-terminally capped with NBD on TentaGel S resin beads, reference compound]”, in data set [1], the “Bead fluorescence in methanol” value is “bright fluorescence” and the “Fluorescence (beads)” value was “fluoresced brightly; also recorded: fluorescence-on”.

With “PLVKA [randomly selected negative non-assembling pentapeptide]”, the “Fluorescence (beads)” value in data set [1] is “Off”. Moreover, the Assembly result in data set [2] was “No”. The “Nanostructures detected by TEM” value in data set [5] was “no nanostructures were detected”.

With “QIMRW [randomly selected negative non-assembling pentapeptide]”, the “Fluorescence (beads)” value in data set [1] was “Off”. The Assembly result in data set [2] is “No”. The “Nanostructures detected by TEM” value in data set [5] is on record as “no nanostructures were detected”.

As to “(NBD)-NFGAIL-beads [additional positive control NFGAIL N-capped with NBD on beads, reference compound]”, the “Fluorescence (beads)” value in data set [1] is given as “fluorescence-on”.
